{"source": "ChEMBL document CHEMBL1201862", "about": "“PubChem BioAssay data set” (2004)", "assay_in_all_cases": "DTP human tumour cell line panel, 48 h", "key": {"NCI-H522": {"test_system": "NCI-H522"}, "HCT-15": {"test_system": "HCT-15"}, "UO-31": {"test_system": "UO-31"}, "KM12": {"test_system": "KM12"}, "SK-MEL-28": {"test_system": "SK-MEL-28"}, "HL-60": {"test_system": "HL-60"}, "IGROV-1": {"test_system": "IGROV-1"}, "SF-268": {"test_system": "SF-268"}, "SNB-75": {"test_system": "SNB-75"}, "SW-620": {"test_system": "SW-620"}, "HOP-92": {"test_system": "HOP-92"}, "EKVX": {"test_system": "EKVX"}, "OVCAR-5": {"test_system": "OVCAR-5"}, "A549": {"test_system": "A549"}, "SR": {"test_system": "SR"}, "HCC 2998": {"test_system": "HCC 2998"}, "T47D": {"test_system": "T47D"}, "LOX IMVI": {"test_system": "LOX IMVI"}, "HT-29": {"test_system": "HT-29"}, "SF-295": {"test_system": "SF-295"}}, "note": "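Five compound concentrations were applied to cells in 96-well plates for 48 hours; endpoints were derived by simple linear interpolation of the resulting dose-response curve. GI50 marks 50% less growth.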 Calls of active or inactive are those of the source. Rule as the data show it: active = GI50 up to about 1.1 µM and inactive = higher."}
{"smiles": "CCC(C#N)(c1ccccc1)N(CCc1ccccc1)C(=O)c1ccccc1", "note": "(stereo not given)", "values": [{"measurement": "GI50", "setting": "NCI-H522", "result": "> 100 µM (inactive)"}, {"measurement": "GI50", "setting": "HCT-15", "result": "> 100", "unit": "µM"}, {"measurement": "GI50", "setting": "UO-31", "result": "64.3 µM (inactive)"}, {"measurement": "GI50", "setting": "KM12", "result": "> 100 µM (inactive)"}, {"measurement": "GI50", "setting": "SK-MEL-28", "result": "42.6 µM (inactive)"}, {"measurement": "GI50", "setting": "HL-60", "result": "> 100 µM (inactive)"}, {"measurement": "GI50", "setting": "IGROV-1", "result": "46.9 µM (inactive)"}, {"measurement": "GI50", "setting": "SF-268", "result": "88.5 µM (inactive)"}, {"measurement": "GI50", "setting": "SNB-75", "result": "29.5 µM (inactive)"}, {"measurement": "GI50", "setting": "SW-620", "result": "> 100 µM (inactive)"}, {"measurement": "GI50", "setting": "HOP-92", "result": "12.6 µM (inactive)"}, {"measurement": "GI50", "setting": "EKVX", "result": "> 100 µM (inactive)"}, {"measurement": "GI50", "setting": "OVCAR-5", "result": "> 100 µM (inactive)"}, {"measurement": "GI50", "setting": "A549", "result": "77.1 µM (inactive)"}, {"measurement": "GI50", "setting": "SR", "result": "> 100 µM (inactive)"}, {"measurement": "GI50", "setting": "HCC 2998", "result": "54.7 µM (inactive)"}, {"measurement": "GI50", "setting": "T47D", "result": "> 100 µM (inactive)"}, {"measurement": "GI50", "setting": "LOX IMVI", "result": "> 100 µM (inactive)"}, {"measurement": "GI50", "setting": "HT-29", "result": "> 100 µM (inactive)"}, {"measurement": "GI50", "setting": "SF-295", "result": "29.6 µM (inactive)"}]}
{"smiles": "COC(=O)C1=C(OC(=O)/C(=C/c2ccc(Cl)cc2)c2ccccc2)C(C(=O)OC)[C@@]2(O)[C@@H](C(=O)OC)[C@H](C)C[C@@H]1[C@@H]2C(=O)OC", "note": "(stereo not given in full)", "values": [{"measurement": "GI50", "setting": "NCI-H522", "result": "6 µM (inactive)"}, {"measurement": "GI50", "setting": "HCT-15", "result": "> 100", "unit": "µM"}, {"measurement": "GI50", "setting": "UO-31", "result": "> 100 µM (inactive)"}, {"measurement": "GI50", "setting": "KM12", "result": "> 100 µM (inactive)"}, {"measurement": "GI50", "setting": "SK-MEL-28", "result": "> 100 µM (inactive)"}, {"measurement": "GI50", "setting": "HL-60", "result": "> 100 µM (inactive)"}, {"measurement": "GI50", "setting": "IGROV-1", "result": "23.6 µM (inactive)"}, {"measurement": "GI50", "setting": "SF-268", "result": "> 100 µM (inactive)"}, {"measurement": "GI50", "setting": "SNB-75", "result": "29.6 µM (inactive)"}, {"measurement": "GI50", "setting": "SW-620", "result": "> 100 µM (inactive)"}, {"measurement": "GI50", "setting": "HOP-92", "result": "0.573 µM (active)"}, {"measurement": "GI50", "setting": "EKVX", "result": "27.2 µM (inactive)"}, {"measurement": "GI50", "setting": "OVCAR-5", "result": "> 100 µM (inactive)"}, {"measurement": "GI50", "setting": "A549", "result": "7.85 µM (inactive)"}, {"measurement": "GI50", "setting": "SR", "result": "> 100 µM (inactive)"}, {"measurement": "GI50", "setting": "HCC 2998", "result": "> 100 µM (inactive)"}, {"measurement": "GI50", "setting": "T47D", "result": "> 100 µM (inactive)"}, {"measurement": "GI50", "setting": "LOX IMVI", "result": "> 100 µM (inactive)"}, {"measurement": "GI50", "setting": "HT-29", "result": "> 100 µM (inactive)"}, {"measurement": "GI50", "setting": "SF-295", "result": "6.79 µM (inactive)"}]}
